Source: patent publication US20120214822A1 (ASTRAZENECA AB, priority 2007, published 2012)

Target: human active recombinant p38α-6His tagged (Homo sapiens, UniProt Q16539)
Assay: P38 Alpha Enzyme Assay (AlphaScreen, biotinylated-ATF2 substrate);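 note: 0.5 nM final p38α, reaction started with ATP and run 45 min at 37 °C, phospho-ATF2 read by antibody-based AlphaScreen, background wells quenched with EDTA before ATP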
Assay type: biochemical
Details: p38 alpha enzyme inhibition; means of replicate determinations; 4 h pre-incubation at 37° C.; SD of assay 0.2-0.3 log units

Chain of human active recombinant p38α-6His tagged (Q16539 whole entry): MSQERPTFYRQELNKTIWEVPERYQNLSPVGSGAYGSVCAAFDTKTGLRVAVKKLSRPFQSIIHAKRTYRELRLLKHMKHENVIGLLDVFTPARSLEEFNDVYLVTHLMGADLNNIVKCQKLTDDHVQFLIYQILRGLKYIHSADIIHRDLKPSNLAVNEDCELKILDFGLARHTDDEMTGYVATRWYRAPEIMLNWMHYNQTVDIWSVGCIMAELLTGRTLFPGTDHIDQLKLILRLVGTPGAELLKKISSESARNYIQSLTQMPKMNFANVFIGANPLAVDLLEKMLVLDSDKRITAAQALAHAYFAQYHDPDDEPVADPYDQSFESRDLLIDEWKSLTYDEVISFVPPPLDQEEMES

pIC50	IC50 [nM]	Structure (SMILES)
9.5		CCN(C)CCOc1ccccc1C1(Nc2nccn(-c3cc(C(=O)NC4CC4)ccc3C)c2=O)CC1 [Example 241, N-Cyclopropyl-3-[3-[[1-[2-[2-(ethylmethylamino)ethoxy]phenyl]cyclopropyl]amino]-2-oxo-1(2H)-pyrazinyl]-4-methyl-benzamide]
7		Cc1ccc(C(=O)NC2CC2)cc1-n1ccnc(NC(C)(C)Cc2ccc(F)cc2)c1=O [Example 62, N-Cyclopropyl-3-[3-[[2-(4-fluorophenyl)-1,1-dimethylethyl]amino]-2-oxo-1(2H)-pyrazinyl]-4-methyl-benzamide]
8.9		Cc1ccc(C(=O)NC2CC2)cc1-n1ccnc(N[C@@H](c2ccccc2)[C@@H](C)CN2CCC(C)CC2)c1=O [Example 170, N-Cyclopropyl-4-methyl-3-[3-[[(1R,2S)-2-methyl-3-(4-methyl-1-piperidinyl)-1-phenylpropyl]amino]-2-oxo-1(2H)-pyrazinyl]-benzamide]
9.9		Cc1ccc(C(=O)NC2CC2)cc1-n1ccnc(NC2(c3ccccc3OCCNC(C)C)CCC2)c1=O [Example 271, N-Cyclopropyl-4-methyl-3-[3-[[1-[2-[2-[(1-methylethyl)amino]ethoxy]phenyl]cyclobutyl]amino]-2-oxo-1(2H)-pyrazinyl]-benzamide]
9.7		Cc1ccc(C(=O)NC2CC2)cc1-n1ccnc(NC2(c3ccccc3OCCNCCCO)CC2)c1=O [Example 250, N-Cyclopropyl-3-[3-[[1-[2-[2-[(3-hydroxypropyl)amino]ethoxy]phenyl]cyclopropyl]amino]-2-oxo-1(2H)-pyrazinyl]-4-methyl-benzamide]
8.4		CNCCOc1ccccc1C(C)(C)Nc1nccn(-c2cc(C(=O)NC3CCC3)ccc2C)c1=O [Example 224, N-Cyclobutyl-4-methyl-3-[3-[[1-methyl-1-[2-[2-(methylamino)ethoxy]phenyl]ethyl]amino]-2-oxo-1(2H)-pyrazinyl]-benzamide]
8.6		CNCCOc1ccccc1C(C)(C)Nc1nccn(-c2cc(C(N)=O)ccc2C)c1=O [Example 229, 4-Methyl-3-[3-[[1-methyl-1-[2-[2-(methylamino)ethoxy]phenyl]ethyl]amino]-2-oxo-1(2H)-pyrazinyl]benzamide]
	251	Cc1ccc(C(=O)NC2CC2)cc1-n1ccnc(NCC2(c3ccccc3)CCN(C)CC2)c1=O [Example 35, N-Cyclopropyl-4-methyl-3-[3-[[(1-methyl-4-phenyl-4-piperidinyl)methyl]amino]-2-oxo-1(2H)-pyrazinyl]-benzamide]
9.7		Cc1ccc(C(=O)NC2CC2)cc1-n1ccnc(NC2(c3ccccc3OCCN3CCCC3)CC2)c1=O [Example 238, N-Cyclopropyl-4-methyl-3-[2-oxo-3-[[1-[2-[2-(1-pyrrolidinyl)ethoxy]phenyl]cyclopropyl]amino]-1(2H)-pyrazinyl]-benzamide]
9.2		Cc1ccc(C(=O)NC2CC2)cc1-n1ccnc(N[C@@H](c2ccccc2)[C@@H](C)CN2CCSCC2)c1=O [Example 189, N-Cyclopropyl-4-methyl-3-[3-[[(1R,2S)-2-methyl-1-phenyl-3-(4-thiomorpholinyl)propyl]amino]-2-oxo-1(2H)-pyrazinyl]-benzamide]
8.1		COC[C@H]1CCCN1C[C@@H](C)[C@@H](Nc1nccn(-c2cc(C(=O)NC3CC3)ccc2C)c1=O)c1ccccc1 [Example 148, N-Cyclopropyl-3-[3-[[(1R,2R)-3-[(2R)-2-(methoxymethyl)-1-pyrrolidinyl]-2-methyl-1-phenylpropyl]amino]-2-oxo-1(2H)-pyrazinyl]-4-methyl-benzamide]
6.8		Cc1ccc(C(=O)NC2CC2)cc1-n1ccnc(NCCCc2ccccc2)c1=O [Example 36, N-Cyclopropyl-4-methyl-3-[2-oxo-3-[(3-phenylpropyl)amino]-1(2H)-pyrazinyl]-benzamide]
7.8		Cc1ccc(C)c(CNc2nccn(-c3cc(C(=O)NC4CC4)ccc3C)c2=O)c1 [Example 98, N-Cyclopropyl-3-[3-[[(2,5-dimethylphenyl)methyl]amino]-2-oxo-1(2H)-pyrazinyl]-4-methyl-benzamide]
	25.1	CNCCCOc1ccccc1[C@@H]1CCCN1c1nccn(-c2cc(C(=O)NC3CC3)ccc2C)c1=O (single isomer, unassigned) [Example 326]
8.9		CCN(CC)C[C@H](C)[C@@H](Nc1nccn(-c2cc(C(=O)NC3CC3)ccc2C)c1=O)c1ccccc1 [Example 146, N-cyclopropyl-3-[3-[[(1R,2S)-3-(diethylamino)-2-methyl-1-phenylpropyl]amino]-2-oxo-1(2H)-pyrazinyl]-4-methyl-benzamide]
9.9		Cc1ccc(C(=O)NC2CC2)cc1-n1ccnc(NC(C)(C)c2ccccc2OCCNC[C@H](C)O)c1=O [Example 213, N-Cyclopropyl-3-[3-[[1-[2-[2-[[(2S)-2-hydroxypropyl]amino]ethoxy]phenyl]-1-methylethyl]amino]-2-oxo-1(2H)-pyrazinyl]-4-methyl-6-benzamide]

pIC50	IC50 [nM]	Structure (SMILES)
9.7		Cc1ccc(C(=O)NC2CC2)cc1-n1ccnc(NC2(c3ccccc3OCCN3CCCN(C)CC3)CC2)c1=O [Example 235, N-Cyclopropyl-3-[3-[[1-[2-[2-(hexahydro-4-methyl-1H-1,4-diazepin-1-yl)ethoxy]phenyl]cyclopropyl]amino]-2-oxo-1(2H)-pyrazinyl]-4-methyl-benzamide]
6.4		Cc1ccc(C(=O)NC2CC2)cc1-n1ccnc(NCc2nc3ccccc3[nH]2)c1=O [Example 27, 3-[3-[(1H-Benzimidazol-2-ylmethyl)amino]-2-oxo-1(2H)-pyrazinyl]-N-cyclopropyl-4-methyl-benzamide]
9		COC[C@H]1CCCN1C[C@H](C)[C@@H](Nc1nccn(-c2cc(C(=O)NC3CC3)ccc2C)c1=O)c1ccccc1 [Example 147, N-Cyclopropyl-3-[3-[[(1R,2S)-3-[(2R)-2-(methoxymethyl)-1-pyrrolidinyl]-2-methyl-1-phenylpropyl]amino]-2-oxo-1(2H)-pyrazinyl]-4-methyl-benzamide]
8.9		Cc1ccc(C(=O)NC2CC2)cc1-n1ccnc(NC(C)(C)c2ccccc2OCCCNCC(F)(F)F)c1=O [Example 207, N-Cyclopropyl-4-methyl-3-[3-[[1-methyl-1-[2-[3-[(2,2,2-trifluoroethyl)amino]propoxy]phenyl]ethyl]amino]-2-oxo-1(2H)-pyrazinyl]-benzamide]
9.9		CCNCCOc1ccccc1C1(Nc2nccn(-c3cc(C(=O)NC4CC4)ccc3C)c2=O)CC1 [Example 168, N-Cyclopropyl-4-methyl-3-[3-[[1-[2-[2-(ethylamino)ethoxy]phenyl]cyclopropyl]amino]-2-oxo-1(2H)-pyrazinyl]-benzamide]
6.8		CNCCOc1ccccc1C(C)(C)Nc1nccn(-c2cc(C(=O)NCCO)ccc2C)c1=O [Example 228, N-(2-Hydroxyethyl)-4-methyl-3-[3-[[1-methyl-1-[2-[2-(methylamino)ethoxy]phenyl]ethyl]amino]-2-oxo-1(2H)-pyrazinyl]-benzamide]
9.1		Cc1ccc(C(=O)NC2CC2)cc1-n1ccnc(NC2(c3ccccc3OCCN3CCn4ccnc4C3)CC2)c1=O [Example 296, N-Cyclopropyl-3-{3-[(1-{2-[2-(5,6-dihydroimidazo[1,2-a]pyrazin-7(8H)-yl)ethoxy]phenyl}cyclopropyl)amino]-2-oxopyrazin-1(2H)-yl}-4-methylbenzamide]
8.9		Cc1ccc(C(=O)NC2CC2)cc1-n1ccnc(N[C@@H](c2ccccc2)[C@@H](C)CN2CCC3(CC2)OCCO3)c1=O [Example 179, N-Cyclopropyl-3-[3-[[(1R,2S)-3-(1,4-dioxa-8-azaspiro[4.5]dec-8-yl)-2-methyl-1-sphenylpropyl]amino]-2-oxo-1(2H)-pyrazinyl]-4-methyl-benzamide]
8.9		CCc1ccc(C(=O)NC2CC2)cc1-n1ccnc(NC(C)(C)c2ccccc2OCCNC[C@H](C)O)c1=O [Example 289, N-Cyclopropyl-4-ethyl-3-[3-({1-[2-(2-{[(2S)-2-hydroxypropyl]amino}ethoxy)phenyl]-1-methylethyl}amino)-2-oxopyrazin-1(2H)-yl]benzamide]
6.5		Cc1ccc(C(=O)NC2CC2)cc1-n1ccnc(NCCCN2CCOCC2)c1=O [Example 6, N-Cyclopropyl-4-methyl-3-[3-[[3-(4-morpholinyl)propyl]amino]-2-oxo-1(2H)-pyrazinyl]-benzamide]
8.2		Cc1ccc(C(=O)NC2CC2)cc1-n1ccnc(NCc2cccc(Cl)c2)c1=O [Example 130, 3-[3-[[(3-Chlorophenyl)methyl]amino]-2-oxo-1(2H)-pyrazinyl]-N-cyclopropyl-4-methyl-benzamide]
8.1		CNCCOc1ccccc1C1(Nc2nccn(-c3cc(C(=O)NC4CC4)c(F)cc3C)c2=O)CC1 [Example 319, N-Cyclopropyl-2-fluoro-4-methyl-5-{3-[(1-{2-[2-(methylamino)ethoxy]phenyl}cyclopropyl)amino]-2-oxopyrazin-1(2H)-yl}benzamide]
10.3		Cc1ccc(C(=O)NC2CC2)cc1-n1ccnc(NC2(c3ccccc3OCCNC(C)C)CC2)c1=O [Example 234, N-Cyclopropyl-4-methyl-3-[3-[[1-[2-[2-[(1-methylethyl)amino]ethoxy]phenyl]cyclopropyl]amino]-2-oxo-1(2H)-pyrazinyl]-benzamide]
7		Cc1ccc(C(=O)NC2CC2)cc1-n1ccnc(NCc2cccs2)c1=O [Example 31, N-Cyclopropyl-4-methyl-3-[2-oxo-3-[(2-thienylmethyl)amino]-1(2H)-pyrazinyl]-benzamide]
9.1		Cc1ccc(C(=O)NC2CC2)cc1-n1ccnc(NC(C)(C)c2ccccc2OCCN2CCNCC2)c1=O [Example 199, N-Cyclopropyl-4-methyl-3-[3-[[1-methyl-1-[2-[2-(1-piperazinyl)ethoxy]phenyl]ethyl]amino]-2-oxo-1(2H)-pyrazinyl]-benzamide]

Structure (SMILES)	pIC50	IC50 [nM]
Cc1ccc(C(=O)NC2CC2)cc1-n1ccnc(NC(C)(C)c2ccccc2OCCCCNCC(F)(F)F)c1=O [Example 205, N-Cyclopropyl-4-methyl-3-[3-[[1-methyl-1-[2-[4-[(2,2,2-trifluoroethyl)amino]butoxy]phenyl]ethyl]amino]-2-oxo-1(2H)-pyrazinyl]-benzamide]	9	
